{
  "source": "PubChem BioAssay AID624254",
  "about": "(Broad Institute, 2012)",
  "note": "Calls of active or inactive are those of the source. How the calls were made is not given here.",
  "data": [
    {"test": "Luciferase light induction in v cholerae bh1651, agonist dose response, confirmatory (AID 624254)", "conditions": "V. cholerae BH1651 luxOD47E, luciferase light induction, 6 h; at 50 µM (top of the series)", "values": [
      {"smiles": "COC(=O)c1ccc(CSc2nnc3c(Cl)cc(Cl)cn23)o1", "activation (light increase)": "inactive"},
      {"smiles": "C[C@H](NC(=O)c1ccco1)C(=O)Nc1ccc(S(=O)(=O)N2CCCC2)cc1", "activation (light increase)": "inactive"},
      {"smiles": "COc1ccc(OCc2cn3c(C)cc(C)nc3n2)cc1", "activation (light increase)": "inactive"},
      {"smiles": "COc1cc2c(cc1OC)C(c1ccc(C)cc1)NC(=O)C2", "note": "(stereo unspecified)", "activation (light increase)": "inactive"},
      {"smiles": "O=C(CN1C(=O)CSC1=O)NC1CCCCC1", "activation (light increase)": "inactive"},
      {"smiles": "COc1ccc(Cl)cc1NC(=O)COC(=O)c1ccc(C)o1", "activation (light increase)": "inactive"},
      {"smiles": "COc1ccc(C(=O)COC(=O)CNC(=O)c2ccc(Cl)cc2Cl)c(OC)c1", "activation (light increase)": "inactive"},
      {"smiles": "C=CCNC(=O)CCCOc1ccc(C)cc1", "activation (light increase)": "inactive"},
      {"smiles": "CCNC(=O)CCSc1nnc(-c2ccco2)o1", "activation (light increase)": "inactive"},
      {"smiles": "Cc1cc(NC2CCCCC2)nc(-c2ccccc2O)n1", "activation (light increase)": "inactive"},
      {"smiles": "COc1ccc(-c2nnn(CC(=O)c3ccc4c(c3)OCCO4)n2)cc1OC", "activation (light increase)": "inactive"},
      {"smiles": "Cc1ccc(OCC(=O)NC2CCS(=O)(=O)C2)c([N+](=O)[O-])n1", "note": "(stereo unspecified)", "activation (light increase)": "inactive"},
      {"smiles": "COc1ccc(C(=O)COC(=O)c2cccc(-n3cnnn3)c2)c(OC)c1", "activation (light increase)": "inactive"},
      {"smiles": "O=C(COC(=O)c1ccc(Br)cc1)NC1CCCC1", "activation (light increase)": "inactive"},
      {"smiles": "COc1ccc(-c2cc(CCCC(=O)NCCc3cc(OC)ccc3OC)no2)cc1", "activation (light increase)": "inactive"},
      {"smiles": "CCCn1nnnc1NCc1ccc(OC)cc1", "activation (light increase)": "inactive"},
      {"smiles": "Cc1c(C(=O)c2ccc(F)cc2F)c2ccccn2c1CCc1ccccn1", "activation (light increase)": "inactive"},
      {"smiles": "CC(=O)c1cccc(NC(=O)CSc2nc(=O)n(CCN3CCOCC3)c3c2CCCC3)c1", "activation (light increase)": "inactive"},
      {"smiles": "CC1(C(=O)N2CCN(c3ccc([N+](=O)[O-])cc3)CC2)CC1(Cl)Cl", "note": "(stereo unspecified)", "activation (light increase)": "inactive"},
      {"smiles": "Cc1nc2ccc(C(=O)OCC(=O)N(C)c3ccccc3)cc2nc1C", "activation (light increase)": "inactive"},
      {"smiles": "S=C(c1ccc(N2CCOCC2)cc1)N1CCCCC1", "activation (light increase)": "inactive"},
      {"smiles": "C=Cn1c(C(=O)O)ccc1-c1ccc(CC)cc1", "activation (light increase)": "inactive"},
      {"smiles": "CCCCCn1nc(C(=O)N(CC(C)C)c2c(N)n(CCCC)c(=O)[nH]c2=O)c2ccccc2c1=O", "activation (light increase)": "inactive"},
      {"smiles": "O=C(CN1CCC(O)(c2cccc(C(F)(F)F)c2)CC1)NCCc1ccccc1", "activation (light increase)": "inactive"},
      {"smiles": "O=C(Cc1ccc(-c2ccccc2)cc1)NC1CCCC1", "activation (light increase)": "inactive"},
      {"smiles": "O=C(Oc1nsnc1N1CCCCC1)N1CCOCC1", "activation (light increase)": "inactive"},
      {"smiles": "COc1cccc(CNC(=O)COC(=O)CN(C)S(=O)(=O)c2ccc(NC(C)=O)cc2)c1", "activation (light increase)": "inactive"},
      {"smiles": "O=[N+]([O-])c1ccc(S(=O)(=O)NCC(c2cccnc2)N2CCc3ccccc32)cc1", "note": "(stereo unspecified)", "activation (light increase)": "inactive"},
      {"smiles": "CCCOC(=O)c1ccc(NC(=O)C2CCCO2)cc1", "note": "(stereo unspecified)", "activation (light increase)": "inactive"},
      {"smiles": "Cn1c(CNc2cccc(Cl)c2)nnc1SCC(=O)OC1CCCCC1", "activation (light increase)": "inactive"},
      {"smiles": "CCOC(=O)c1c(-c2ccccc2)csc1NC(=O)c1nn(CC)cc1Br", "activation (light increase)": "inactive"},
      {"smiles": "O=C(O)c1cc(CN2CCOCC2)oc1-c1ccccc1", "activation (light increase)": "inactive"},
      {"smiles": "CCc1ccc2c(c1)c1nnc(NN)nc1n2CC", "activation (light increase)": "inactive"},
      {"smiles": "Cc1cc(C)c(S(C)(=O)=O)c(Oc2ccc(C(C)(C)C)cc2)n1", "activation (light increase)": "inactive"},
      {"smiles": "Cc1cc(C)cc(OC(=O)c2cccnc2)c1", "activation (light increase)": "inactive"},
      {"smiles": "CC(=O)c1cc2c(cc1NS(=O)(=O)c1ccccc1)OCO2", "activation (light increase)": "inactive"},
      {"smiles": "Cc1ccc(SCc2nc(-c3cccnc3)no2)cc1", "activation (light increase)": "inactive"},
      {"smiles": "COc1cc(NC(=O)Cc2cccs2)ccc1-n1cnnn1", "activation (light increase)": "inactive"},
      {"smiles": "CCCS(=O)(=O)N1CCCC(C(=O)NCCCN(C)Cc2ccccc2)C1", "note": "(stereo unspecified)", "activation (light increase)": "inactive"},
      {"smiles": "Cc1ccc(C(=O)OCC(=O)NCCNC(=O)COC(=O)c2ccc(C)s2)s1", "activation (light increase)": "inactive"},
      {"smiles": "Cc1[nH]c2ccc3c(ncn3CCC#N)c2c1C", "activation (light increase)": "inactive"}
    ]}
  ]
}
